Measured values reported in ChEMBL document CHEMBL3868604, “Optimization and bioevaluation of Cdc37-derived peptides: An insight into Hsp90-Cdc37 protein-protein interaction modulators” (Bioorg Med Chem, 2017).
The source made the active and inactive calls. The calls are words filed in the database; no cut-off is given here.

What was measured:
Heat shock protein HSP90 [1] = target: T1, Heat shock protein HSP90 (Homo sapiens, UniProt P07900+P08238); assay: Inhibition of FITC-geldanamycin binding to N-terminal GST-tagged Hsp90 (unknown origin) expressed in Escherichia coli at 100 uM measured after 15 mins by fluorescence polarization assay relative to control
Heat shock protein HSP90 [2] = target: T1, Heat shock protein HSP90; assay: Binding affinity to N-terminal GST-tagged Hsp90 (unknown origin) expressed in Escherichia coli by ITC method
Homo sapiens = organism: Homo sapiens; assay: Inhibition of N-terminal GST-tagged Hsp90 (unknown origin)-His-tagged Cdc37 middle domain (unknown origin) interaction expressed in Escherichia coli at 50 uM preincubated for 30 mins with GST-tagged Hsp90 (unknown origin) followed by addition of His-tagged Cdc37 middle domain (unknown origin) measured after 1 hr by GST-pulldown assay

## CC(C)c1cc(C(=O)N2Cc3ccc(CN4CCN(C)CC4)cc3C2)c(O)cc1O
Heat shock protein HSP90 [1]
  inhibition: 99.8%

## Ac-HFGMLRR-NH2
Heat shock protein HSP90 [1]
  inhibition: < 10%
Heat shock protein HSP90 [2]
  Kd: 5.99 µM
Homo sapiens
  inhibition: Active

## Ac-KHFGMLRR-NH2
Heat shock protein HSP90 [1]
  inhibition: < 10%
Heat shock protein HSP90 [2]
  Kd: 7.41 µM

## Ac-KHFGMLRRW-NH2
Heat shock protein HSP90 [1]
  inhibition: < 10%
Heat shock protein HSP90 [2]
  Kd: 10.07 µM

## Ac-KHFGMLRRWD-NH2
Heat shock protein HSP90 [1]
  inhibition: < 10%
Heat shock protein HSP90 [2]
  Kd: 21 µM

## Ac-KHFGMLRRWDD-NH2
Heat shock protein HSP90 [1]
  inhibition: < 10%
Heat shock protein HSP90 [2]
  Kd: 6.9 µM
